Measurements: patent publication US9108944B2, “Androgen receptor modulators and uses thereof” (ARAGON PHARMACEUTICALS, INC., priority 2010, dated 2015)

Assays:
[1] = molecular target: T1, AR-VP16 (Homo sapiens, UniProt P10275); experiment: AR-VP16 DNA Binding Assay, antagonist mode (HepG2 cells, 0.1 nM R1881); format: cell-based
T1 sequence (P10275 560-920 limits assumed): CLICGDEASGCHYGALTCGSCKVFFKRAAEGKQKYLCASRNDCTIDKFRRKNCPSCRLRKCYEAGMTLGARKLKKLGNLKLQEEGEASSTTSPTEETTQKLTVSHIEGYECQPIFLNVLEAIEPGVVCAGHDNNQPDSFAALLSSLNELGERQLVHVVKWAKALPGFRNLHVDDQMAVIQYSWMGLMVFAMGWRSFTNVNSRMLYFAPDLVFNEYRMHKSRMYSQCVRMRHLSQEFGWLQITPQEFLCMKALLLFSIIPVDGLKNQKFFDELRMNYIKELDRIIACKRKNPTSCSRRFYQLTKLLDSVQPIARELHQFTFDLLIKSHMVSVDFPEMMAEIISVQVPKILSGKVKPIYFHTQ
How it was run: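 Transfected HepG2 cells expressing AR-VP16 received serially diluted compound in charcoal-stripped-serum RPMI the day after transfection, with 0.1 nM R1881 (final) added only for antagonist testing. After 48 h, cells were lysed for measurement.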

[2] = molecular target: T1, AR-VP16; experiment: AR-VP16 DNA Binding Assay, agonist mode (HepG2 cells); format: cell-based; settings: Emax >20x DMSO control = agonist

SMILES | IC50 [1] [µM] | ARVP16 DNA Binding Assay (Agonist mode): Agonist? [2]
N#Cc1ncc(N2C(=O)C3(CCC3)N(c3ccc(C(=O)NCCc4ccncc4)c(F)c3)C2=S)cc1C(F)(F)F [Compound 238, 4-(7-(6-Cyano-5-(trifluoromethyl)pyridin-3-yl)-8-oxo-6-thioxo-5,7-diazaspiro[3.4]octan-5-yl)-2-fluoro-N-(2-(pyridin-4-yl)ethyl)benzamide] | > 1 | No (Agonist defined as a compound whose Emax in the ARVP16 DNA Binding Assay (Agonist mode) is >20x DMSO control)
N#Cc1ncc(N2C(=O)C3(CCC3)N(c3ccc(F)c(OCCCc4ccccc4)c3)C2=S)cc1C(F)(F)F [Compound 163, 5-(5-(4-Fluoro-3-(3-phenylpropoxy)phenyl)-8-oxo-6-thioxo-5,7-diazaspiro[3.4]octan-7-yl)-3-(trifluoromethyl)picolinonitrile] | > 1 | No (Agonist defined as a compound whose Emax in the ARVP16 DNA Binding Assay (Agonist mode) is >20x DMSO control)
Cc1cc(N2C(=O)C3(CCC3)N(c3ccc(OC4CCN(C)CC4)cc3)C2=S)cnc1C#N [Compound 191, 3-Methyl-5-(5-(4-((1-methylpiperidin-4-yl)oxy)phenyl)-8-oxo-6-thioxo-5,7-diazaspiro[3.4]octan-7-yl)picolinonitrile] | > 1 | No (Agonist defined as a compound whose Emax in the ARVP16 DNA Binding Assay (Agonist mode) is >20x DMSO control)
Cc1cc(N2C(=O)C3(CCC3)N(c3ccc(-c4cncc(F)c4)cc3)C2=S)cnc1C#N [Compound 105, 5-(5-(4-(5-Fluoropyridin-3-yl)phenyl)-8-oxo-6-thioxo-5,7-diazaspiro[3.4]octan-7-yl)-3-methylpicolinonitrile] | < 1 | No (Agonist defined as a compound whose Emax in the ARVP16 DNA Binding Assay (Agonist mode) is >20x DMSO control)
N#Cc1ncc(N2C(=O)C3(CCC3)N(c3ccc(OCCc4ccc5ccccc5c4)c(F)c3)C2=S)cc1C(F)(F)F [Compound 141, 5-(5-(3-Fluoro-4-(2-(naphthalen-2-yl)ethoxy)phenyl)-8-oxo-6-thioxo-5,7-diazaspiro[3.4]octan-7-yl)-3-(trifluoromethyl)picolinonitrile] | > 1 | Yes (Agonist defined as a compound whose Emax in the ARVP16 DNA Binding Assay (Agonist mode) is >20x DMSO control)
CN1CCN(CCCOc2ccc(N3C(=S)N(c4cnc(C#N)c(C(F)(F)F)c4)C(=O)C34CCC4)c(F)c2)CC1 [Compound 184, 5-(5-(2-Fluoro-4-(3-(4-methylpiperazin-1-yl)propoxy)phenyl)-8-oxo-6-thioxo-5,7-diazaspiro[3.4]octan-7-yl)-3-(trifluoromethyl)picolinonitrile] | < 1 | Yes (Agonist defined as a compound whose Emax in the ARVP16 DNA Binding Assay (Agonist mode) is >20x DMSO control)
COc1ccc(N2C(=S)N(c3cnc(C#N)c(C)c3)C(=O)C23CCC3)cc1 [Compound 205, 5-(5-(4-Methoxyphenyl)-8-oxo-6-thioxo-5,7-diazaspiro[3.4]octan-7-yl)-3-methylpicolinonitrile] | < 1 | No (Agonist defined as a compound whose Emax in the ARVP16 DNA Binding Assay (Agonist mode) is >20x DMSO control)
CC(C)NC(=O)c1ccc(N2C(=S)N(c3cnc(C#N)c(C(F)(F)F)c3)C(=O)C23CCC3)cc1F [Compound 279, 4-(7-(6-Cyano-5-(trifluoromethyl)pyridin-3-yl)-8-oxo-6-thioxo-5,7-diazaspiro[3.4]octan-5-yl)-2-fluoro-N-isopropylbenzamide] | < 1 | No (Agonist defined as a compound whose Emax in the ARVP16 DNA Binding Assay (Agonist mode) is >20x DMSO control)
CN1CCN(CCNC(=O)c2ccc(N3C(=S)N(c4cnc(C#N)c(C(F)(F)F)c4)C(=O)C34CCC4)cc2F)CC1 [Compound 243, 4-(7-(6-Cyano-5-(trifluoromethyl)pyridin-3-yl)-8-oxo-6-thioxo-5,7-diazaspiro[3.4]octan-5-yl)-2-fluoro-N-(2-(4-methylpiperazin-1-yl)ethyl)benzamide] | > 1 | No (Agonist defined as a compound whose Emax in the ARVP16 DNA Binding Assay (Agonist mode) is >20x DMSO control)
Cc1cc(N2C(=O)C3(CCC3)N(c3ccc(C(=O)Nc4cncc(F)c4)c(F)c3)C2=S)cnc1C#N [Compound 305, 4-(7-(6-Cyano-5-methylpyridin-3-yl)-8-oxo-6-thioxo-5,7-diazaspiro[3.4]octan-5-yl)-2-fluoro-N-(5-fluoropyridin-3-yl)benzamide] | < 1 | No (Agonist defined as a compound whose Emax in the ARVP16 DNA Binding Assay (Agonist mode) is >20x DMSO control)
N#Cc1ncc(N2C(=O)C3(CCC3)N(c3ccc4cnccc4c3)C2=S)cc1C(F)(F)F [Compound 51, 5-(5-(Isoquinolin-6-yl)-8-oxo-6-thioxo-5,7-diazaspiro[3.4]octan-7-yl)-3-(trifluoromethyl)picolinonitrile] | < 1 | No (Agonist defined as a compound whose Emax in the ARVP16 DNA Binding Assay (Agonist mode) is >20x DMSO control)
Cc1cc(N2C(=O)C3(CCC3)N(c3ccc(-c4cccnc4C)cc3)C2=S)cnc1C#N [Compound 99, 3-Methyl-5-(5-(4-(2-methylpyridin-3-yl)phenyl)-8-oxo-6-thioxo-5,7-diazaspiro[3.4]octan-7-yl)picolinonitrile] | < 1 | Yes (Agonist defined as a compound whose Emax in the ARVP16 DNA Binding Assay (Agonist mode) is >20x DMSO control)
Cc1ccc(N2C(=S)N(c3cnc(C#N)c(Cl)c3)C(=O)C23CCC3)cc1 [Compound 57, 3-Chloro-5-(8-oxo-6-thioxo-5-(p-tolyl)-5,7-diazaspiro[3.4]octan-7-yl)picolinonitrile] | < 1 | No (Agonist defined as a compound whose Emax in the ARVP16 DNA Binding Assay (Agonist mode) is >20x DMSO control)
N#Cc1ncc(N2C(=O)C3(CCC3)N(c3ccc(OCc4ccccc4)c(F)c3)C2=S)cc1C(F)(F)F [Compound 128, 5-(5-(4-(Benzyloxy)-3-fluorophenyl)-8-oxo-6-thioxo-5,7-diazaspiro[3.4]octan-7-yl)-3-(trifluoromethyl)picolinonitrile] | < 1 | No (Agonist defined as a compound whose Emax in the ARVP16 DNA Binding Assay (Agonist mode) is >20x DMSO control)
N#Cc1ncc(N2C(=O)C3(CCC3)N(c3ccc(OCCC[S+]([O-])CCCC(F)(F)C(F)(F)F)c(F)c3)C2=S)cc1C(F)(F)F (stereo not drawn) [Compound 154, 5-(5-(3-Fluoro-4-(3-((4,4,5,5,5-pentafluoropentyl)sulfinyl)propoxy)phenyl)-8-oxo-6-thioxo-5,7-diazaspiro[3.4]octan-7-yl)-3-(trifluoromethyl)picolinonitrile] | < 1 | No (Agonist defined as a compound whose Emax in the ARVP16 DNA Binding Assay (Agonist mode) is >20x DMSO control)
